The results in this text go back to patent publication US20230167118A1, “DEGRADATION OF BRUTON'S TYROSINE KINASE (BTK) BY CONJUGATION OF BTK INIDBITORS WITH E3 LIGASE LIGAND AND METHODS OF USE” (BEIGENE, LTD., priority 2020, published 2023).

Structures are written as SMILES.

The subject of experiment [1] is HEK-293 cells. Nature of the experiment: HEK-293 Cytotoxicity Assay (CellTiter-Glo). The class given is cell-based. The note with it: Homo sapiens, HEK293, 72 h incubation, CellTiter-Glo luminescence. The protocol:
HEK-293 Cytotoxicity Assay
HEK-293 cells are treated with compounds diluted in 0.2% DMSO, dilution is done according to the following protocol: (1) make 500× stock solution in DMSO from 5 mM by 4-fold dilution, total 8 doses were included; (2) make 2× solution in cell culture medium by transferring 0.5 ul 500× stock solution into 125 ul medium; (3) 50 ul of 2× solution is added to cells and incubate for 72 h.
Add 25 μl of the CellTiter-Glo®Reagent [I (Promega)—Cat No. G7572] to each well in the 96-well plate. Mix contents for 2 minutes on an orbital shaker to induce cell lysis. Allow the plate to incubate at room temperature for 10 minutes to stabilize luminescent signal. Record luminescence on BMG PheraStar with luminescence protocol.
(§1) The IC50 value of a compound can be obtained by fitting the following equation. Y=Bottom+(TOP−Bottom)/(1+((IC50/X)^hillslope)) Wherein, X and Y are known values, and IC50, Hillslope, Top and Bottom are the parameters obtained by fitting with software. Y is the inhibition percentage (calculated from the equation), X is the concentration of the compound; IC50 is the concentration of the compound when the 50% inhibition is reached. The smaller the IC50 value is, the stronger the inhibitory ability of the compound is. Vice versa, the higher the IC50 value is, the weaker the ability the inhibitory ability of the compound is; Hillslope represents the slope of the fitted curve, generally around 1*; Bottom represents the minimum value of the curve obtained by data fitting, which is generally 0%±20%; Top represents the maximum value of the curve obtained by data fitting, which is generally 100%±20%. The experimental data were fitted by calculating and analyzing with Dotmatics data analysis software.
On the technique in general: In ATP-based viability assays light output follows the ATP content of the culture.

Experiment [2] concerns the target T1, BTK (Homo sapiens, UniProt Q06187).
T1 construct: High control=Cell group with added DMSO and without compound, indicating microplate readings without BTK degradation; endogenous in cells; host or cells: TMD-8 cells
The experiment in a line: Cell Degradation: BTK degradation in TMD-8 cells, HTRF assay. The class given is cell-based. Particulars: 6 h treatment, IC50 (DC50) of BTK degradation. The protocol: TMD-8 cells are treated with compounds in 0.2% DMSO, dilution is done according to the following protocol: (1) make 500× stock solution in DMSO from 1 mM by 6-fold dilution, total 8 doses were included; (2) make 2× solution in cell culture medium by transferring 0.5 μl 500× stock solution into 125 μl medium; (3) 15 μl of 2× solution is added to cells and incubate for 6 h.
After 6 h treatment, add […] 4×lysis buffer to each well; seal the plate and incubate 30 min at room temperature on a plate shaker; Once the cells are lysed, 16 μL of cell lysate are transferred to a PE 384-well HTRF detection plate; 4 μL of pre-mixed HTRF antibodies are added to each well; Cover the plate with a plate sealer, spin 1000 rpm for 1 min, Incubate overnight at room temperature; Read on BMG PheraStar with HTRF protocol (337 nm-665 nm-620 nm).
The inhibition (degradation) percentage of the compound was calculated by the following equation: Inhibition percentage of Compound=100-100× (Signal-low control)/(High control-low control), wherein signal=each test compound group
Dmax is the maximum percentage of inhibition (degradation).
The IC50 (DC50) value of a compound can be obtained by fitting the following equation
Y=Bottom+(TOP-Bottom)/(1+((IC50/X)^hillslope))
as §1, with “Wherein,” for “The IC50 value of a compound can be obtained by fitting the following equation. Y=Bottom+(TOP−Bottom)/(1+((IC50/X)^hillslope)) Wherein,”, “1 *;” for “1*;”
On the technique in general: Time-resolved FRET reads energy transfer from a long-lived donor to a nearby acceptor.

T1 sequence (Q06187 whole entry): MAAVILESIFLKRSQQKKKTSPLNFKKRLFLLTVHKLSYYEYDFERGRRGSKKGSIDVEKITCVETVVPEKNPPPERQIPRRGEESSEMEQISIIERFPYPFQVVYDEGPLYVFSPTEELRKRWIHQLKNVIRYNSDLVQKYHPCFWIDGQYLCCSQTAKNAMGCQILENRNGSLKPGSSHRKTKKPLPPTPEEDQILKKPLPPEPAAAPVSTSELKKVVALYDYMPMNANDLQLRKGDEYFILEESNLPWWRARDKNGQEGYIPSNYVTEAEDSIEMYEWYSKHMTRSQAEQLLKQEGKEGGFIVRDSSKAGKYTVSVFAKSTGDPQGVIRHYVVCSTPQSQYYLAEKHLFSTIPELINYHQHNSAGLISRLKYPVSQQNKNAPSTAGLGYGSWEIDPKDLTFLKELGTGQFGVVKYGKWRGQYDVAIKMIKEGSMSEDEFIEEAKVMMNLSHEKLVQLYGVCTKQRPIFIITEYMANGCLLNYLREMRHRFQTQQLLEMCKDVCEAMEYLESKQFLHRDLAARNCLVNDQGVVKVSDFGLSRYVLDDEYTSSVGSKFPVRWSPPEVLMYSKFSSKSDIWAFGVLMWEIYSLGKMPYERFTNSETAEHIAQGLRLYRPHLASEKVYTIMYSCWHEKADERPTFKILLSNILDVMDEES

`Cc1cc(-c2ncnc3[nH]c(-c4ccc(C5CCN(CC6CCN(c7ccc(N8CCC(=O)NC8=O)cc7)CC6)CC5)cc4)cc23)ccc1CNC(=O)c1nc(C(C)(C)C)no1` [Example 1, 3-(tert-butyl)-N-(4-(6-(4-(1-((1-(4-(2,4-dioxotetrahydropyrimidin-1(2H)-yl)phenyl)piperidin-4-yl)methyl)piperidin-4-yl)phenyl)-7H-pyrrolo[2,3-d]pyrimidin-4-yl)-2-methylbenzyl)-1,2,4-oxadiazole-5-carboxamide]: in experiment [1], the 50% inhibitory concentration (IC50) (as a rule, the concentration at which inhibition is half-maximal) is more than 10000 nM. Also, the DC50 (usually the concentration giving 50% degradation) in experiment [2] amounted to 0.54 nM.
On to `Cc1cc(-c2ncnc3[nH]c(-c4ccc(C5CCN(CC6CCN(c7cc8c(cc7F)C(=O)N(C7CCC(=O)NC7=O)C8=O)CC6)CC5)cc4)cc23)ccc1CNC(=O)c1nc(C(C)(C)C)no1` (centres unmarked) [Example 2, 3-(tert-butyl)-N-(4-(6-(4-(1-((1-(2-(2,6-dioxopiperidin-3-yl)-6-fluoro-1,3-dioxoisoindolin-5-yl)piperidin-4-yl)methyl)piperidin-4-yl)phenyl)-7H-pyrrolo[2,3-d]pyrimidin-4-yl)-2-methylbenzyl)-1,2,4-oxadiazole-5-carboxamide], for which the IC50 in experiment [1] is more than 10000 nM. The molecule also gave a 50% degradation concentration (DC50) in experiment [2] of 1.75 nM.
`Cc1cc(-c2ncnc3[nH]c(-c4ccc(C5CCN(CCC6CCN(c7ccc(N8CCC(=O)NC8=O)cc7)CC6)CC5)cc4)cc23)ccc1CNC(=O)c1nc(C(C)(C)C)no1` [Example 3, 3-(tert-butyl)-N-(4-(6-(4-(1-(2-(1-(4-(2,4-dioxotetrahydropyrimidin-1(2H)-yl)phenyl)piperidin-4-yl)ethyl)piperidin-4-yl)phenyl)-7H-pyrrolo[2,3-d]pyrimidin-4-yl)-2-methylbenzyl)-1,2,4-oxadiazole-5-carboxamide] had an IC50 in experiment [1] of 1700 nM. In experiment [2], this molecule displayed a DC50 of 3.8 nM.
As for `Cc1cc(-c2ncnc3[nH]c(-c4ccc(C5CCN(CCC6CCN(c7ccc(C8CCC(=O)NC8=O)cc7)CC6)CC5)cc4)cc23)ccc1CNC(=O)c1nc(C(C)(C)C)no1` (centres unmarked) [Example 4, 3-(tert-butyl)-N-(4-(6-(4-(1-(2-(1-(4-(2,6-dioxopiperidin-3-yl)phenyl)piperidin-4-yl)ethyl)piperidin-4-yl)phenyl)-7H-pyrrolo[2,3-d]pyrimidin-4-yl)-2-methylbenzyl)-1,2,4-oxadiazole-5-carboxamide], the IC50 in experiment [1] is 3700 nM. Further, the DC50 in experiment [2] amounted to 2.3 nM.
For `Cc1cc(-c2ncnc3[nH]c(-c4ccc(C5CCN(CC6CN(c7ccc(N8CCC(=O)NC8=O)cc7)C6)CC5)cc4)cc23)ccc1CNC(=O)c1nc(C(C)(C)C)no1` [Example 5, 3-(tert-butyl)-N-(4-(6-(4-(1-((1-(4-(2,4-dioxotetrahydropyrimidin-1(2H)-yl)phenyl)azetidin-3-yl)methyl)piperidin-4-yl)phenyl)-7H-pyrrolo[2,3-d]pyrimidin-4-yl)-2-methylbenzyl)-1,2,4-oxadiazole-5-carboxamide], in that order: 2960 nM and 1 nM.
Molecule `Cc1cc(-c2ncnc3[nH]c(-c4ccc(C5CCN(CCCC6CN(c7ccc8c(c7)C(=O)N(C7CCC(=O)NC7=O)C8=O)C6)CC5)cc4)cc23)ccc1CNC(=O)c1nc(C(C)(C)C)no1` (centres unmarked) [Example 6, 3-(tert-butyl)-N-(4-(6-(4-(1-(3-(1-(2-(2,6-dioxopiperidin-3-yl)-1,3-dioxoisoindolin-5-yl)azetidin-3-yl)propyl)piperidin-4-yl)phenyl)-7H-pyrrolo[2,3-d]pyrimidin-4-yl)-2-methylbenzyl)-1,2,4-oxadiazole-5-carboxamide] yielded an IC50 in experiment [1] of more than 10000 nM. Moreover, the DC50 in experiment [2] was found to be 1.7 nM.
Regarding `Cc1cc(-c2ncnc3[nH]c(-c4ccc(C5CCN(CC6CCN(c7ccc(N8CCC(=O)NC8=O)cc7)CC6)CC5)cc4)cc23)ccc1[C@@H](C)NC(=O)c1nc(C(C)(C)C)no1` [Example 7, (R)-3-(tert-butyl)-N-(1-(4-(6-(4-(1-((1-(4-(2,4-dioxotetrahydropyrimidin-1(2H)-yl)phenyl)piperidin-4-yl)methyl)piperidin-4-yl)phenyl)-7H-pyrrolo[2,3-d]pyrimidin-4-yl)-2-methylphenyl)ethyl)-1,2,4-oxadiazole-5-carboxamide], the IC50 in experiment [1] is 1600 nM. For the same molecule, half-maximal degradation in experiment [2] (DC50) was put at 1.3 nM.
With `Cc1cc(-c2ncnc3[nH]c(-c4ccc(C5CCN(CC6CCN(c7ccc(N8CCC(=O)NC8=O)cc7)CC6)CC5)cc4)cc23)ccc1[C@H](C)NC(=O)c1nc(C(C)(C)C)no1` [Example 8, (S)-3-(tert-butyl)-N-(1-(4-(6-(4-(1-((1-(4-(2,4-dioxotetrahydropyrimidin-1(2H)-yl)phenyl)piperidin-4-yl)methyl)piperidin-4-yl)phenyl)-7H-pyrrolo[2,3-d]pyrimidin-4-yl)-2-methylphenyl)ethyl)-1,2,4-oxadiazole-5-carboxamide], the midpoint of inhibition in experiment [1], the IC50, lay at 1960 nM. The half-maximal degradation concentration (DC50) in experiment [2] worked out at 40.9 nM.
On to `Cc1c(-c2ncnc3[nH]c(-c4ccc(C5CCN(CC6CCN(c7ccc(N8CCC(=O)NC8=O)cc7)CC6)CC5)cc4)cc23)cccc1N1CCn2c(cc3c2CC(C)(C)C3)C1=O` [Example 9, 1-(4-(4-((4-(4-(4-(3-(7,7-dimethyl-1-oxo-1,3,4,6,7,8-hexahydro-2H-cyclopenta[4,5]pyrrolo[1,2-a]pyrazin-2-yl)-2-methylphenyl)-7H-pyrrolo[2,3-d]pyrimidin-6-yl)phenyl)piperidin-1-yl)methyl)piperidin-1-yl)phenyl)dihydropyrimidine-2,4(1H,3H)-dione], for which half-maximal inhibition in experiment [1] (IC50) was put at 746 nM. Half-maximal degradation in experiment [2] (DC50) was put at 7.2 nM.
Taken in the same sequence, the figures for `Cc1c(-c2ncnc3[nH]c(-c4ccc(N5CCN(CC6CCN(c7ccc(N8CCC(=O)NC8=O)cc7)CC6)CC5)nc4)cc23)cccc1N1CCn2c(cc3c2CC(C)(C)C3)C1=O` [Example 10, 1-(4-(4-((4-(5-(4-(3-(7,7-dimethyl-1-oxo-1,3,4,6,7,8-hexahydro-2H-cyclopenta[4,5]pyrrolo[1,2-a]pyrazin-2-yl)-2-methylphenyl)-7H-pyrrolo[2,3-d]pyrimidin-6-yl)pyridin-2-yl)piperazin-1-yl)methyl)piperidin-1-yl)phenyl)dihydropyrimidine-2,4(1H,3H)-dione] were more than 10000 nM and 3.4 nM.
On to `Cc1c(-c2ncnc3[nH]c(-c4ccc(N5CCN(CC6CCN(c7ccc(N8CCC(=O)NC8=O)cc7)CC6)CC5)cc4)cc23)cccc1N1CCn2c(cc3c2CC(C)(C)C3)C1=O` [Example 11, 1-(4-(4-((4-(4-(4-(3-(7,7-dimethyl-1-oxo-1,3,4,6,7,8-hexahydro-2H-cyclopenta[4,5]pyrrolo[1,2-a]pyrazin-2-yl)-2-methylphenyl)-7H-pyrrolo[2,3-d]pyrimidin-6-yl)phenyl)piperazin-1-yl)methyl)piperidin-1-yl)phenyl)dihydropyrimidine-2,4(1H,3H)-dione], for which, in experiment [1], the IC50 is more than 10000 nM. In experiment [2], this molecule yielded a DC50 of 4.7 nM.
`Cc1cc(-c2ncnc3[nH]c(-c4c(C)nn(C5CCN(CC6CCN(c7ccc(N8CCC(=O)NC8=O)cc7)CC6)CC5)c4C)cc23)ccc1[C@@H](C)N(C)C(=O)c1nc(C(C)(C)C)no1` [Example 155, (R)-3-(tert-butyl)-N-(1-(4-(6-(1-(1-((1-(4-(2,4-dioxotetrahydropyrimidin-1(2H)-yl)phenyl)piperidin-4-yl)methyl)piperidin-4-yl)-3,5-dimethyl-1H-pyrazol-4-yl)-7H-pyrrolo[2,3-d]pyrimidin-4-yl)-2-methylphenyl)ethyl)-N-methyl-1,2,4-oxadiazole-5-carboxamide] gave a DC50 in experiment [2] of 13.3 nM.
